From patent US9884048B2, “ERK inhibitors” (Merck Sharp & Dohme Corp., priority 2014, dated 2018)

What follows are compounds tested against phosphorylated active hERK2 enzyme (Homo sapiens (Human), UniProt P28482). Details: not given.
phosphorylated active hERK2 enzyme, sequence (P28482 whole entry): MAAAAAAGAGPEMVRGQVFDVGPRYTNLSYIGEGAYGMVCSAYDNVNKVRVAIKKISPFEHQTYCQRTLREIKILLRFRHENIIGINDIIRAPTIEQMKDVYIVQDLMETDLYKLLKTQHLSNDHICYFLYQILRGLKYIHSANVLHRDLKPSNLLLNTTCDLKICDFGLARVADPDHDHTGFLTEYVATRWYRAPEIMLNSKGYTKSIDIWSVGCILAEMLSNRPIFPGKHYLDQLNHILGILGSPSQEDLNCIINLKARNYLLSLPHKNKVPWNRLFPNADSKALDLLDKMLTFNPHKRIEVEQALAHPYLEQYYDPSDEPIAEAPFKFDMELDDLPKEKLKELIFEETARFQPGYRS

IC50 [nM] | Structure (SMILES)
285 | C[C@@H](NC(=O)Nc1cc2cnn(CC3CCOCC3)c2c(CO)n1)c1ccccc1 [Example 309, 1-[7-(hydroxymethyl)-1-(tetrahydro-2H-pyran-4-ylmethyl)-1H-pyrazolo[3,4-c]pyridin-5-yl]-3-[(1R)-1-phenylethyl]urea]
711 | Cc1cc(-n2ncc3cc(NC(=O)N[C@H]4CCCC[C@@H]4NC(=O)c4ccccc4)ncc32)ccn1 (racemic) [Example 152, Racemic Trans N-[(1S,2S) and (1R, 2R)-2-({[1-(2-methylpyridin-4-yl)-1H-pyrazolo[3,4-c]pyridin-5-yl]carbamoyl}amino)cyclo-hexy]benzamide]

Same assay, conditions: read-out: ERK2 IC50; IMAP-FP assay; 0.5 nM hERK2, 30 μM ATP; 10 point titration, 3 μM starting concentration

Structure (SMILES) | IC50 [nM]
Cc1cc(-n2ncc3cc(NC(=O)N[C@H](C)c4ccccc4)nc(CN4CCOCC4)c32)ccn1 [Example 245, 1-[1-(2-methylpyridin-4-yl)-7-(morpholin-4-ylmethyl)-1H-pyrazolo[3,4-c]pyridin-5-yl]-3-[(1R)-1-phenylethyl]urea] | 832
Cc1cc(-n2ncc3cc(NC(=O)N[C@H]4CN(C)C[C@@H]4c4ccc(C)s4)ncc32)ccn1 [Example 189, 1-[(3R,4S)-1-methyl-4-(5-methylthiophen-2-yl)pyrrolidin-3-yl]-3-[1-(2-methylpyridin-4-yl)-1H-pyrazolo[3,4-c]pyridin-5-yl]urea] | 0.254
CO[C@H]1CCC[C@@H]1NC(=O)Nc1cc2cnn(-c3ccnc(C)c3)c2cn1 [Example 140, 1-[(1S,2S)-2-methoxycyclopentyl]-3-[1-(2-methylpyridin-4-yl)-1H-pyrazolo[3,4-c]pyridin-5-yl)urea] | 72.1
CNC(=O)[C@@H](NC(=O)Nc1cc2cnn(-c3ccnc(C)c3)c2cn1)c1ccccc1 [Example 142, (2S)-N-methyl-2-({[1-(2-methylpyridin-4-yl)-1H-pyrazolo[3,4-c]pyridin-5-yl]carbamoyl}amino)-2-phenylethanamide] | 1.09
Cc1cc(-n2ncc3cc(NC(=O)NC4CC(=O)N(C)C4)ncc32)ccn1 (stereo not shown) [Example 22, 1-(1-methyl-5-oxopyrrolidin-3-yl)-3-[1-(2-methylpyridin-4-yl)-1H-pyrazolo[3,4-c]pyridin-5-yl)urea] | 181
Cc1cc(-n2ncc3cc(NC(=O)NC(C)c4csc(C)n4)ncc32)ccn1 (stereo not shown) [Example 123, 1-[1-(2-methylpyridin-4-yl)-1H-pyrazolo[3,4-c]pyridin-5-yl]-3-[1-(2-methyl-1,3-thiazol-4-yl)ethyl]urea] | 24.8
C=CC(=O)NCCc1nc(NC(=O)N[C@H](C)c2ccccc2)cc2cnn(C)c12 [Example 329, N-{2-[1-Methyl-5-({[(1R)-1-phenylethyl]carbamoyl}amino)-1H-pyrazolo[3,4-c]pyridin-7-yl]ethyl}prop-2-enamide] | 563
Cn1ncc2ccc(-n3ncc4cc(NC(=O)N[C@@H](c5ccccc5)C(C)(C)O)ncc43)cc21 [Example 206, 1-[(1S)-2-hydroxy-2-methyl-1-phenylpropyl]-3-[1-(1-methyl-1H-indazol-6-yl)-1H-pyrazolo[3,4-c]pyridin-5-yl]urea] | 0.99
Cc1cc(-n2ncc3cc(NC(=O)NCC4CN(C)C4)ncc32)ccn1 [Example 264, 1-((1-methylazetidin-3-yl)methyl)-3-(1-(2-methylpyridin-4-yl)-1H-pyrazolo[3,4-c]pyridin-5-yl)urea] | 70
Cc1cc(-n2ncc3cc(NC(=O)N[C@@H]4CN(C)C[C@H]4c4ccccc4C)ncc32)ccn1 [Example 190, 1-[(3S,4R)-1-methyl-4-(2-methylphenyl)pyrrolidin-3-yl]-3-[1-(2-methylpyridin-4-yl)-1H-pyrazolo[3,4-c]pyridin-5-yl]urea] | 11.7
CO[C@H]1CNC[C@@H]1NC(=O)Nc1cc2cnn(-c3ccnc(C)c3)c2cn1 [Example 132, 1-[(3S,4S)-4-methoxypyrrolidin-3-yl]-3-[1-(2-methylpyridin-4-yl)-1H-pyrazolo[3,4-c]pyridin-5-yl]urea] | 168
CO[C@H]1CN(C)C[C@@H]1NC(=O)Nc1cc2cnn(-c3ccnc(C)c3)c2cn1 [Example 193, 1-[(3S,4S)-4-methoxy-1-methylpyrrolidin-3-yl]-3-[1-(2-methylpyridin-4-yl)-1H-pyrazolo[3,4-c]pyridin-5-yl]urea] | 2530
CO[C@H]1CN(C)C[C@@H]1NC(=O)Nc1cc2cnn(-c3ccnc(C)c3)c2cn1 [Example 291, 1-[(3S,4S)-4-methoxy-1-methylpyrrolidin-3-yl]-3-[1-(2-methylpyridin-4-yl)-1H-pyrazolo[3,4-c]pyridin-5-yl]urea] | 46.4
Cc1cc(-n2ncc3cc(NC(=O)NCc4ccc5c(c4)CC(=O)N5)ncc32)ccn1 [Example 74, 1-[1-(2-methylpyridin-4-yl)-1H-pyrazolo[3,4-c]pyridin-5-yl]-3-[(2-oxo-2,3-dihydro-1H-indol-5-yl)methyl]urea] | 73.1
Cc1cc(-n2ncc3cc(NC(=O)NCCN4CC5CC4CN5c4ccccc4)ncc32)ccn1 (stereo not shown) [Example 70, 1-[1-(2-methylpyridin-4-yl)-1H-pyrazolo[3,4-c]pyridin-5-yl]-3-[2-(5-phenyl-2,5-diazabicyclo[2.2.1]hept-2-yl)ethyl]urea] | 16.9
Cc1cc(-n2ncc3cc(NC(=O)NC(C)c4csc(C)n4)ncc32)ccn1 (stereo not shown) [Example 131, 1-[1-(2-methylpyridin-4-yl)-1H-pyrazolo[3,4-c]pyridin-5-yl]-3-[1-(2-methyl-1,3-thiazol-4-yl)ethyl]urea] | 10.9
Cc1cc(-n2ncc3cc(NC(=O)N[C@@H]4CN(C)C[C@H]4c4ccccc4C(F)(F)F)ncc32)ccn1 [Example 192, 1-[1-(2-methylpyridin-4-yl)-1H-pyrazolo[3,4-c]pyridin-5-yl]-3-{(3S,4R)-1-methyl-4-[2-(trifluoromethyl)-phenyl]pyrrolidin-3-yl}urea] | 235
Cc1cc(-n2ncc3cc(NC(=O)NCC4CN(c5ccccc5)CCO4)ncc32)ccn1 (stereo not shown) [Example 79, 1-[1-(2-methylpyridin-4-yl)-1H-pyrazolo[3,4-c]pyridin-5-yl]-3-[(4-phenylmorpholin-2-yl)methyl]urea] | 26.5
CCN1C[C@@H](NC(=O)Nc2cc3cnn(-c4ccnc(C)c4)c3cn2)[C@H](c2ccccc2)C1 [Example 200, 1-[(3S,4R)-1-ethyl-4-phenylpyrrolidin-3-yl]-3-[1-(2-methylpyridin-4-yl)-1H-pyrazolo[3,4-c]pyridin-5-yl]urea] | 20.6
Cc1cc(-n2ncc3cc(NC(=O)N[C@H](CCO)c4ccccc4)ncc32)ccn1 [Example 89, 1-[(1R)-3-hydroxy-1-phenylpropyl]-3-[1-(2-methylpyridin-4-yl)-1H-pyrazolo[3,4-c]pyridin-5-yl)urea] | 0.821
Cc1cc(-n2ncc3cc(NC(=O)N[C@@H]4CN(C)C[C@H]4c4nc(C)cs4)ncc32)ccn1 [Example 126, 1-[(3S,4R)-1-methyl-4-(4-methyl-1,3-thiazol-2-yl)pyrrolidin-3-yl]-3-[1-(2-methylpyridin-4-yl)-1H-pyrazolo[3,4-c]pyridin-5-yl)urea] | 15.8

Second part, the compound after the results:

IC50 [nM] | Structure (SMILES)
78 | COCCCn1ncc2cc(NC(=O)N[C@H](C)c3ccccc3)nc(CO)c21 [Example 301, 1-[7-(hydroxymethyl)-1-(3-methoxypropyl)-1H-pyrazolo[3,4-c]pyridin-5-yl]-3-[(1R)-1-phenylethyl]urea]
70 | CC(C)(O)[C@@H](NC(=O)Nc1cc2cn[nH]c2cn1)c1ccccc1 [Example 230, (S)-1-(2-hydroxy-2-methyl-1-phenylpropyl)-3-(1H-pyrazolo[3,4-c]pyridin-5-yl)urea]
1.13 | Cc1cc(-n2ncc3cc(NC(=O)N[C@H]4CN(C)C[C@@H]4c4ccc(C5CC5)s4)ncc32)ccn1 [Example 164, 1-[(3R,4S)-4-(5-cyclopropylthiophen-2-yl)-1-methylpyrrolidin-3-yl]-3-[1-(2-methylpyridin-4-yl)-1H-pyrazolo[3,4-c]pyridin-5-yl]urea]
0.524 | COc1cccc(F)c1CN1CCC[C@@H](NC(=O)Nc2cc3cnn(-c4ccnc(C)c4)c3cn2)C1 [Example 56, 1-[(3R)-1-(2-fluoro-6-methoxybenzyl)piperidin-3-yl]-3-[1-(2-methylpyridin-4-yl)-1H-pyrazolo[3,4-c]pyridin-5-yl]urea]
41 | C[C@@H](NC(=O)Nc1cc2cn[nH]c2c(CO)n1)c1ccccc1 [Example 229, (R)-1-(7-(hydroxymethyl)-1H-pyrazolo[3,4-c]pyridin-5-yl)-3-(1-phenylethyl)urea]
0.579 | CN1C[C@H](NC(=O)Nc2cc3cnn(-c4ccc(F)cc4)c3cn2)[C@@H](c2ccccc2)C1 [Example 208, 1-[1-(4-fluorophenyl)-1H-pyrazolo[3,4-c]pyridin-5-yl]-3-[(3R,4S)-1-methyl-4-phenylpyrrolidin-3-yl]urea]
1810 | Cc1cc(-n2ncc3cc(NC(=O)NC4(C#N)CC4)ncc32)ccn1 [Example 121, 1-(1-cyanocyclopropyl)-3-[1-(2-methylpyridin-4-yl)-1H-pyrazolo[3,4-c]pyridin-5-yl]urea]
2180 | COC[C@@H](NC(=O)Nc1cc2cnn(C3CCNC(C)C3)c2cn1)c1ccccc1 (stereo partly drawn) [Example 239, 1-[(1S)-2-methoxy-1-phenylethyl]-3-[1-(2-methylpiperidin-4-yl)-1H-pyrazolo[3,4-c]pyridin-5-yl]urea]
1180 | Cc1cc(-n2ncc3cc(NC(=O)N[C@@H](C)c4ccccn4)ncc32)ccn1 [Example 203, 1-[1-(2-methylpyridin-4-yl)-1H-pyrazolo[3,4-c]pyridin-5-yl]-3-[(1S)-1-pyridin-2-ylethyl]urea]
17.6 | COC(=O)NCc1nc(NC(=O)N[C@H](C)c2ccccc2)cc2cnn(-c3ccc(F)cc3)c12 [Example 326, Methyl {[1-(4-fluorophenyl)-5-({[(1R)-1-phenylethyl]carbamoyl}amino)-1H-pyrazolo[3,4-c]pyridin-7-yl]methyl}carbamate]
103 | COCCNCc1nc(NC(=O)N[C@H](C)c2ccccc2)cc2cnn(-c3ccnc(C)c3)c12 [Example 321, 1-[7-{[(2-methoxyethyl)amino]methyl}-1-(2-methylpyridin-4-yl)-1H-pyrazolo[3,4-c]pyridin-5-yl]-3-[(1R)-1-phenylethyl]urea]
